In EP0292365A2, “4-Amino-5,8-quinazolindione derivatives, process for their preparation and pharmaceutical compositions containing them” (CENTRE NATIONAL DE LA RECHERCHE SCIENTIFIQUE, priority 1987, dated 1988):
Read-outs that look alike come from different tables or passages of the source.

Columns and labels:
[1] = tested on: cellules leucémiques L 1210; test: In vitro cytotoxicity: growth inhibition of L 1210 leukemia cells (Coulter count); type: cell-based, souris; settings: Mus musculus, L1210, 48 h, read-out: CI50 après 48 h de culture
Method: La détermination de la cytotoxicité in vitro sur les cellules leucémiques L 1210 est la méthode utilisée pour sélectionner les molécules potentiellement antitumorales. Le protocole mis en oeuvre est le suivant :
les cellules leucématiques L 1210 adaptées à la culture en suspension stationnaire sont entretenues dans du milieu RPMI 1640 (commercialisé par Seromed) additionné de 20 % de sérum de cheval décomplémenté, L-glutamine (2 mM), pénicilline (200 U/ml), streptomycine (50µg/ml) et cultivées à 37° C dans une atmosphère à 5 % de C02. Les cultures testées par la méthode de BARILE (BARILE M.F. Mycoplasmal contamination of cell culture, in Contamination in Tissue Culture, J. Fogh (ed.) Acad. Press, 132-156, 1973) sont exemptes de contaminations bactériennes et mycoplasmiques.
Pour les expérimentations, les cellules sont ensemencées à la concentration de 0,8.10^5 cellules/ml et cultivées par 2 ml dans des flacons de 15 ml. Les substances à étudier sont dissoutes dans du DMSO (1 % final) dont on a préalablement vérifié l'innocuité. Des quantités croissantes de produit à tester sont ajoutées au temps 0 et des numérations sont faites au compteur COULTER après 24 et 48 heures de culture. Des séries de contrôle sont effectuées avec des quantités de DMSO équivalentes à celles des séries traitées.
Le temps de doublement des cellules témoins est approximativement de 12 heures.
La cytotoxicité est déterminée d'après l'inhibition de croissance des cellules L 1210, calculée par rapport aux témoins correspondants selon la formule : [formula] • T = concentration de cellules non traitées, • t = concentration de cellules traitées.
La concentration de produit qui diminue la croissance cellulaire de 50 % (Clso) est calculée d'après la méthode des régressions linéaires en coordonnées log-probit.
Lorsque la Cl50 est voisine de la micromolarité (égale ou inférieure à 1 µM), il existe une présomption d'activité antitumorale et les essais in vivo indiqués ci-après sont effectués.
A titre d'exemple, la CI50 mesurée 48 heures après traitement des cellules par les composés de l'invention testés est la suivante : […]

mélanocarcinome B16 = settings: J. Med. Chem. 1983, 26, pp. 1715-1719; cited from earlier work
[2] = J. Med. Chem. 1983, 26, pp. 1715-1719; cited from earlier work
leucémie murine P388 = settings: J. Med. Chem. 1983, 26, pp. 1715-1719; cited from earlier work
cellules L1210 = settings: J. Med. Chem. 1983, 26, pp. 1715-1719; cited from earlier work
leucémie L1210 = settings: J. Med. Chem. 1983, 26, pp. 1715-1719; cited from earlier work
sarcome 180 = settings: J. Med. Chem. 1983, 26, pp. 1715-1719; cited from earlier work
[3] = Determination of toxicity (DLo), single intraperitoneal dose; type: in vivo; settings: voie intrapéritonéale, dose unique, souris Swiss, suivies pendant un mois
Source text: Ils sont tous administrés, par voie intrapéritonéale (ip), à des souris Swiss de 22 ± 2 g, à doses uniques exprimées en mg/kg de poids corporel. Les animaux sont suivis pendant un mois. La mortalité et les signes de toxicité sont relevés. On détermine ainsi la DLoqui sera la dose maximale utilisée pour la détermination de l'activité antitumorale.

Leucémie P388 = type: in vivo, souris DBA/2; settings: for Animaux survivants/ animaux traités / T/C / ΔP (J5-J1): P388, greffe ip (10^6 cel), ip J1, suspension dans le Klucel; for activité antitumorale comparée: compared with the quinazolinedione of J. Med. Chem. 1983, 26, 1715-1719
Source text: Afin de tester l'activité antitumorale des composés décrits plus haut, on a utilisé les leucémies murines P388 et L1210, ainsi que le mélanome murin B16. La leucémie P388 est considère comme très sensible et permet une première sélection. D'autre part, une substance ayant une grande activité sur la leucémie L1210 a une grande chance d'être active en clinique humaine (J.M. Venditti; Relevance of transplantable animal tumor systems to the Selection of new agents for clinical trial in pharmacological basis of cancer chemotherapy. The University of Texas ed. Williams and Wilkins, publ. 1975, Baltimore USA).
Cette étude a été réalisée sur 1, 2 ou 3 tumeurs murines expérimentales selon le schéma suivant :
Les produits en solution dans l'eau ou en suspension dans du Klucel sont administrés par voie intrapéritonéale 24 heures après la greffe des cellules tumorales (10 animaux par série), soit en injection unique (J1), soit pendant 9 jours consécutifs (Ji-9). Les morts sont relevés chaque jour à la même heure. La comparaison du temps médian de survie des souris témoins (C) et des souris traitées (T) permet d'apprécier l'activité antitumorale du produit. On adopte comme critère d'activité minimale la valeur de T/C supérieure ou égale à 125 % conformément aux critères établis par GERAN et par l'O.M.S. (Réf. GERAN R.I., GREENBERG N.H., MACDONALD M.M., SCHUMACHER A.M. and ABBOTT B.J. Protocols for screening chemical agents and natural products against animal tumors and other biological systems. Cancer Chemother. Rep. Part 3, 3, 1-103 (1972)).
Lorsque le composé est actif sur plusieurs tumeurs, son administration par d'autres voies que la voie intrapéritonéale (i.p.) est envisagée : orale (p.o) et intraveineuse (i.v). Les résultats des essais effectués à l'aide du composé 63 sont rassemblés dans le tableau IV ci-après.
Les résultats des essais effectués à l'aide des composés de l'invention n° 57 et 59 sont rassemblés dans le tableau IV Bis ci-après.
Dans les tableaux IV et IV Bis, P représentent la variation de poids entre J1 et J5 des animaux traités; lorsque P est supérieure à environ 4 g, cela signifie que la dose à laquelle le composé a été testé est toxique.

[4] = Solubility in water (statement); type: physicochemical

## COC1=CC(=O)c2ncnc(NCCCN3CCC(C4CCN(CCCNc5ncnc6c5C(=O)C(OC)=CC6=O)CC4)CC3)c2C1=O [compound 70]
[1]; L 1210 cells, 48 heures après traitement
  IC50: 1300 nM

## O=C1C(N2CC2)=C(N2CC2)C(=O)c2c(NCCCCCCCNc3ncnc4c3C(=O)C(N3CC3)=C(N3CC3)C4=O)ncnc21 [compound 54]
[1]
  IC50: 3.7 nM

## O=C1C(N2CC2)=C(N2CC2)C(=O)c2ncncc21 [bis(aziridinyl-1)-6,7 quinazolinedione-5,8]
mélanocarcinome B16
  activité in vivo sur le mélanocarcinome B16: très faible activité
[2]
  activité par voie orale: n'est pas actif
leucémie murine P388
  activité antitumorale in vivo sur la leucémie murine P388: une certaine activité antitumorale
Cellules L1210
  cytotoxicité in vitro sur les cellules L1210: cytotoxique
leucémie L1210
  activité antitumorale in vivo sur la leucémie L1210: ne présente pas d'activité antitumorale significative
Sarcome 180
  activité antitumorale in vivo sur le sarcome 180: ne présente pas d'activité antitumorale significative

## CN(CCCNc1ncnc2c1C(=O)C(N1CC1)=C(N1CC1)C2=O)CCCNc1ncnc2c1C(=O)C(N1CC1)=C(N1CC1)C2=O [compound 57]
[3]
  DLo: ~2,5 mg/kg
Leucémie P388; 5 mg/kg
  Animaux survivants/ animaux traités: 10/10
  T/C: 168%
  ΔP (J5-J1): -4,2 g
Leucémie P388; 1,25 mg/kg
  Animaux survivants/ animaux traités: 06/06
  T/C: 137%
  ΔP (J5-J1): -1,0 g
Leucémie P388; 2,5 mg/kg
  Animaux survivants/ animaux traités: 10/10
  T/C: 150%
  ΔP (J5-J1): -1,8 g
Leucémie P388
  activité antitumorale comparée: nettement plus actifs
[1]
  IC50: 4.8 nM
[4]
  solubilité dans l'eau: insolubles dans l'eau

## O=C1C(N2CC2)=C(N2CC2)C(=O)c2c(NCCOCCOCCNc3ncnc4c3C(=O)C(N3CC3)=C(N3CC3)C4=O)ncnc21 [compound 59]
[3]
  DLo: ~10 mg/kg
Leucémie P388; 5 mg/kg
  Animaux survivants/ animaux traités: 10/10
  T/C: 133%
  ΔP (J5-J1): -1,1 g
Leucémie P388; 10 mg/kg
  Animaux survivants/ animaux traités: 10/10
  T/C: 135%
  ΔP (J5-J1): -1,8 g
Leucémie P388; 15 mg/kg
  Animaux survivants/ animaux traités: 07/10
  T/C: 145%
  ΔP (J5-J1): -4,1 g
Leucémie P388; 2,5 mg/kg
  Animaux survivants/ animaux traités: 10/10
  T/C: 115%
  ΔP (J5-J1): -0,5 g
Leucémie P388
  activité antitumorale comparée: nettement plus actifs
[1]
  IC50: 18 nM
[4]
  solubilité dans l'eau: insolubles dans l'eau
